According to patent US20240368159A1, “HPK1 DEGRADERS, COMPOSITIONS COMPRISING THE HPK1 DEGRADER, AND METHODS OF USING THE SAME” (BIOFRONT LTD, priority 2021, published 2024):

Key:
HPK1 protein [1] = biological target: T1, HPK1 protein (Homo sapiens, UniProt Q92918); experiment: HPK1 protein degradation in human PBMC (western blot); type: cell-based; details: 18 h incubation
T1 construct: Frozen human PBMC were purchased from Shanghai OribioTech; host or cells: human PBMC
Method in brief: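 Recovered frozen human PBMC in RPMI1640 exposed to a range of compound concentrations for 18 h. Lysates normalized by BCA and HPK1 level read by western blot with anti-HPK1 polyclonal antibody, β-actin as loading control.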
T1 sequence (Q92918 whole entry): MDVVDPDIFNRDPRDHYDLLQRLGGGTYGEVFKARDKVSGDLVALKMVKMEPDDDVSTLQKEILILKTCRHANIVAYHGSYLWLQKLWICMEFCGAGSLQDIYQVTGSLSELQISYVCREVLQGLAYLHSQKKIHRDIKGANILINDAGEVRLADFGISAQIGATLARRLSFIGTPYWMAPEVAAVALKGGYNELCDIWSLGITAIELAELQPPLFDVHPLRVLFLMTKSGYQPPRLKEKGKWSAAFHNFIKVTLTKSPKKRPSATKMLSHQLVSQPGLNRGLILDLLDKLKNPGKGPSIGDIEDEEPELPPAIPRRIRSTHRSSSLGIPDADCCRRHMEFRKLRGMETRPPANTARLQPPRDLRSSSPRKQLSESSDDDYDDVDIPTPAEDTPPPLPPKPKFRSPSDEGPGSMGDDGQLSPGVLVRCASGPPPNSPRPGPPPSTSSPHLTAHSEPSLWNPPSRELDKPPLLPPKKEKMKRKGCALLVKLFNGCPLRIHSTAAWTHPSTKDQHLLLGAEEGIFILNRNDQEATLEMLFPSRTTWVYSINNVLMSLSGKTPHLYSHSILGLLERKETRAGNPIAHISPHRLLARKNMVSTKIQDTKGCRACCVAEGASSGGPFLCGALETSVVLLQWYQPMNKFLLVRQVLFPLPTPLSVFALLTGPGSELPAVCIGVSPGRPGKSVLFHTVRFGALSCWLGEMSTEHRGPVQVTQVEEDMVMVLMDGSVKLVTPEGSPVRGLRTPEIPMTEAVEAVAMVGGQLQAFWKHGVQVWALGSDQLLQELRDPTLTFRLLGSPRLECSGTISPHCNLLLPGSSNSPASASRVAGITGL

[2] = test system: IL-2 production in primary mouse CD3+ T cells; experiment: Cytokine measurement: IL-2 production in mouse CD3+ T cells (ELISA); type: cell-based; details: T-cell, plate bound anti-CD3, 40 hrs; for fold induction at 1 µM: 1 uM compound, read-out: IL-2 production Fold change (1 uM); for fold induction at 3 µM: 3 uM compound, read-out: IL-2 production Fold change (3 uM)
Experimental: Anti-CD3 Ab was used to provide signal 1 to stimulate mouse CD3+ T cells. Effect of compound stimulation on T cells was measure by IL2 ELISA. Briefly, anti-CD3 Ab was coated onto plates overnight. Isolated T cells from mouse splenocytes were incubated with plate bound CD3 in the presence and absence of compound for 40 hrs. After incubation, the supernatant was collected and IL2 level in the supernatant was determined by mouse IL2 ELISA kit.

HPK1 protein [3] = biological target: T2, HPK1 protein (Mus musculus, UniProt P70218); experiment: HPK1 protein degradation in mouse pan T cell (western blot); type: cell-based; details: 18 h incubation
T2 construct: the CD3+ T cell population was isolated from spleenocytes of mice; endogenous in cells; host or cells: primary mouse splenic CD3+ (pan) T cells
T2 sequence (P70218 1-827): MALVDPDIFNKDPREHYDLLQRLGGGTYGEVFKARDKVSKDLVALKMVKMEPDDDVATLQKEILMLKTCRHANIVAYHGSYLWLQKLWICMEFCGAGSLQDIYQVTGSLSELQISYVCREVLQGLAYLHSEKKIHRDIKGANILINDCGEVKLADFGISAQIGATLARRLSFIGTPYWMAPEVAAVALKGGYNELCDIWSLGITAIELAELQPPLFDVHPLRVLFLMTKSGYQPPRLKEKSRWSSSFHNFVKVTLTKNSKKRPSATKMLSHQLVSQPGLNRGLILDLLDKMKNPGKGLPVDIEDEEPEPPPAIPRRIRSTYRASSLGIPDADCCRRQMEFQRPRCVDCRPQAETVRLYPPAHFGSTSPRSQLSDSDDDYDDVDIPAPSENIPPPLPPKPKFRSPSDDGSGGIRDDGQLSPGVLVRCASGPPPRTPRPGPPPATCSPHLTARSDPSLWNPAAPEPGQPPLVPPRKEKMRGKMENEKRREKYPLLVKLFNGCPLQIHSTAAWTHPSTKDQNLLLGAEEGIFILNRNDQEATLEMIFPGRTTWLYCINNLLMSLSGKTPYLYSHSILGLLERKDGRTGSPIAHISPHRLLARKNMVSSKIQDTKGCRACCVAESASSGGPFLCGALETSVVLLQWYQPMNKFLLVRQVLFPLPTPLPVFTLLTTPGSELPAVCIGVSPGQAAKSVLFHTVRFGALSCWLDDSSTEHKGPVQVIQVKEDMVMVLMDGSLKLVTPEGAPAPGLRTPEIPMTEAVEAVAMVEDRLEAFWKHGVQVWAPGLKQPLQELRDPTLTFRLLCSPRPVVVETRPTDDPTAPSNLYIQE
Method in brief: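 CD3+ pan T cells were isolated from mouse splenocytes and incubated 18 h with a range of compound concentrations. Lysates were normalised by BCA and run on SDS-PAGE. HPK1 was detected by western blot with an anti-human HPK1 polyclonal antibody, with β-actin as loading control.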

HPK1 protein [4] = biological target: T3, HPK1 protein (Homo sapiens, UniProt Q92918); experiment: HPK1 enzyme inhibition assay (ADP-Glo); type: biochemical; details: MBP substrate, ATP, ADP-Glo readout
T3 construct: purchased Signal Chem M23-11G-10
T3 sequence (Q92918 1-346 limits assumed): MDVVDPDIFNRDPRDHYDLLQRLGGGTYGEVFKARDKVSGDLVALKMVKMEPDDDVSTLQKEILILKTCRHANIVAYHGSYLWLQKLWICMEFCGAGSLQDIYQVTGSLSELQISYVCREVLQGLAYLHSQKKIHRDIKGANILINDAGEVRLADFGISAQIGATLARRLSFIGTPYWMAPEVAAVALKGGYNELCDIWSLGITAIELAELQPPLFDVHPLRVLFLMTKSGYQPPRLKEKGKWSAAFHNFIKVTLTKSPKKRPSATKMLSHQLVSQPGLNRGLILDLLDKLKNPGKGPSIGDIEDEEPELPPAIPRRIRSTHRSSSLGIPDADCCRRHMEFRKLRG
Method in brief: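 Recombinant human HPK1 preincubated with compound 60 min at 25 °C, then reaction with MBP (0.2 ug/ul, 2× stock) and ATP (20 μM, 2× stock) 60 min at 25 °C. ADP formed detected by ADP-Glo after ATP depletion and conversion to ATP; IC50 calculated from signal.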

HPK1 p-SLP-76 = HPK1 p-SLP-76 inhibition assay in human PBMC (HTRF); type: cell-based; details: 6 h compound, anti-CD3 stimulation 20 min
Method in brief: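 Human PBMC starved overnight in 0.5% FBS, treated with compound 6 h at 37° C, then stimulated with anti-CD3 (10 ug/mL final) for 20 min. Lysates analysed for phospho-SLP76 by HTRF after overnight detection-antibody incubation at 25° C.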

CCc1c[nH]c2ncc(-c3cccc(N4CCN(CCCN5CCC(c6ccc7c(N8CCC(=O)NC8=O)cccc7c6)CC5)CC4=O)c3)c(Cl)c12 [Example 58, 1-(6-(1-(3-(4-(3-(4-chloro-3-ethyl-1H-pyrrolo[2,3-b]pyridin-5-yl)phenyl)-3-oxopiperazin-1-yl)propyl)piperidin-4-yl)naphthalen-1-yl)dihydropyrimidine-2,4 (1H,3H)-dione]
Dmax (HPK1 protein [1]): 98% | fold induction at 1 µM [2]: 2.5 | fold induction at 3 µM [2]: 2 | Dmax (HPK1 protein [3]): 90% | IC50 (HPK1 protein [4]): 10 to 100 nM | IC50 (HPK1 p-SLP-76): 300 to 3000 nM

O=C1CCC(c2ccc(C3CCN(CCCN4CCN(c5cccc(-c6cnc7[nH]cc(C8CC8)c7c6Cl)c5)C(=O)C4)CC3)cc2)C(=O)N1 (stereo not drawn) [Example 73, 3-(4-(1-(3-(4-(3-(4-chloro-3-cyclopropyl-1H-pyrrolo[2,3-b]pyridin-5-yl)phenyl)-3-oxopiperazin-1-yl)propyl)piperidin-4-yl)phenyl)piperidine-2,6-dione]
Dmax (HPK1 protein [1]): 87% | fold induction at 1 µM [2]: 2 | fold induction at 3 µM [2]: < 0.5 | Dmax (HPK1 protein [3]): 95% | IC50 (HPK1 protein [4]): ≤ 10 nM | IC50 (HPK1 p-SLP-76): ≤ 300 nM

O=C1CCC(N2C(=O)c3cc(F)c(N4CCN(CCCS(=O)(=O)N5CCN(c6cccc(-c7cnc8[nH]cc(C9CC9)c8c7Cl)c6)C(=O)C5)CC4)cc3C2=O)C(=O)N1 (stereo not drawn) [Example 101, 5-(4-(3-((4-(3-(4-chloro-3-cyclopropyl-1H-pyrrolo[2,3-b]pyridin-5-yl)phenyl)-3-oxopiperazin-1-yl)sulfonyl)propyl)piperazin-1-yl)-2-(2,6-dioxopiperidin-3-yl)-6-fluoroisoindoline-1,3-dione]
Dmax (HPK1 protein [1]): 95% | fold induction at 1 µM [2]: 1.7 | fold induction at 3 µM [2]: 3.7 | Dmax (HPK1 protein [3]): 95% | IC50 (HPK1 protein [4]): 10 to 100 nM | IC50 (HPK1 p-SLP-76): ≤ 300 nM
